Source: PubChem BioAssay (NCI)
Where “and” joins values, the source holds several entries; their conditions need not be identical. Equal entries are not always repeated.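 Following 48 hours of exposure in 96-well plates, responses at five concentrations were used to interpolate endpoints linearly. GI50 = concentration required for 50% inhibition of growth. TGI: total growth inhibition.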

Columns and labels:
Experiment in all cases: NCI-60 cell line screen, 48 h
MDA-MB-435 = tested on: MDA-MB-435
HOP-18 NSCLC = tested on: HOP-18 NSCLC
DLD-1 colon = tested on: DLD-1 colon
SNB-78 CNS = tested on: SNB-78 CNS
T-47D breast = tested on: T-47D breast
M19-MEL melanoma = tested on: M19-MEL melanoma
XF 498 CNS = tested on: XF 498 CNS
MDA-N = tested on: MDA-N

SMILES | GI50 (MDA-MB-435) | TGI (MDA-MB-435) | GI50 (T-47D breast) | TGI (T-47D breast) | also measured
Clc1ccc2c(NCCCNc3nccc(Nc4ccc(Br)cc4)n3)ccnc2c1 | 1.55 µM | 2.92 µM |  |  | 
CC(=O)O.CC(=O)O.CC(=O)O.CC(=O)O.CC(=O)O.CC(=O)O.O.[Ti].[Ti] |  |  |  |  | GI50 (HOP-18 NSCLC): > 100 µM; TGI (HOP-18 NSCLC): > 100 µM; GI50 (DLD-1 colon): > 100 µM; TGI (DLD-1 colon): > 100 µM; GI50 (SNB-78 CNS): > 100 µM; TGI (SNB-78 CNS): > 100 µM
CC1OC2CC(=O)OC2C2=C1C(=O)c1c(O)cccc1C2=O (centres undefined) | 0.0493 µM | 0.214 µM | 0.106 µM | 0.351 µM | 
C=C(C)[C@@]12OC3(/C=C/C=C/CCCCC)O[C@@H]1[C@@H]1[C@@H]4O[C@]4(CO)[C@@H](O)[C@]4(O)C(=O)C(C)=C[C@H]4[C@@]1(O3)[C@H](C)[C@H]2OC(=O)c1ccccc1 | < 0.01 µM | 4.56 µM | 2.2 µM | 7.25 µM | 
CC/C(=C(/c1ccc(OCCN(C)C)cc1)c1ccc(OC(=O)CCCCC(=O)c2c(C)[nH]c(/C=C3\N=C(c4ccc[nH]4)C=C3OC)c2C)cc1)c1ccccc1 | 7 µM | 46.1 µM | 1.37 µM | 6.02 µM | 
CCOC(=O)Oc1c(OC)cc(C(=O)NC2CCc3cc(OC)c(OC)c(OC)c3-c3ccc(SC)c(=O)cc32)cc1OC (centres undefined) |  |  |  |  | GI50 (M19-MEL melanoma): < 0.007 µM; TGI (M19-MEL melanoma): > 70 µM; GI50 (DLD-1 colon): 0.0223 µM; TGI (DLD-1 colon): > 70 µM; TGI (XF 498 CNS): 0.896 µM
O=C(Nc1ccc(OS(=O)(=O)c2ccccc2)cc1)C12CC3CC(CC(C3)C1)C2 | > 100 µM | > 100 µM | 3.57 µM | > 100 µM | 
C[As](C)SC1OC(CO)C(O)C1O (centres undefined) | 0.154 µM | 0.746 µM | 3.21 µM | > 100 µM | 
CCOc1nc(-c2ccccc2)cc2c(O)c(-c3nnco3)[nH]c(=O)c12 | 8.48 µM | > 100 µM | 0.251 µM | 9.93 µM | 
COc1ccc(C(=O)c2cc(OC)c(C)c(OC)c2)cc1OC(=O)CCl | 0.0265 µM | 0.0902 µM | 3.26 µM | > 79 µM | 
CC(C)=C[C@@H]1C[C@H](C)[C@H]2CC[C@H](C)C3=C2[C@](O)(OC3=O)[C@]1(C)O | > 100 µM | > 100 µM | > 100 µM | > 100 µM | 
CC(C)(C)C(=O)OCOP(=O)(OCOC(=O)C(C)(C)C)C1CCCN(O)C1=O (centres undefined) | 0.955 µM | 22.5 µM | 0.543 µM | 17.8 µM | 
CC(SC(C)C(=O)N/N=C/c1cccc(Cl)c1)C(=O)N/N=C\c1cccc(Cl)c1 (centres undefined) | 5.02 µM | 23.9 µM | 23 µM | 93.8 µM | 
Oc1ccc(Cl)cc1Cc1cc(Cl)cc(Cl)c1O | 4.35 µM | 83.2 µM | 2.47 µM | 8.68 µM | 
O=c1c2ccccc2[se]n1-c1cccnc1 |  | 46.4 µM |  | 57.3 µM | TGI (MDA-N): 52.9 µM
C=C(F)C(=O)N1CCN(c2nc(OC[C@@H]3CCCN3C)nc3c2CCN(c2cccc4cccc(Cl)c24)C3)C[C@@H]1CC#N | 0.961 µM | 2.22 µM | 1.24 µM | 3.07 µM | 
CC(=O)OC1Oc2ccccc2-c2oc(=O)c(-c3cc(=O)oc4cc(O)ccc34)cc21 (centres undefined) | 18.4 µM | 54.4 µM | 12.1 µM | 48.4 µM | 
Ic1ccc(Nc2nc3nonc3nc2Nc2ccc(I)cc2)cc1 |  |  | 0.179 µM | > 91.1 µM | 
Cc1ccc(SC(C)/C=C/NNC2=NC(c3ccccc3)C(c3ccccc3)=NN2)cc1 (centres undefined) |  |  |  |  | TGI (HOP-18 NSCLC): > 100 µM; TGI (M19-MEL melanoma): > 100 µM; TGI (DLD-1 colon): > 100 µM; TGI (SNB-78 CNS): > 100 µM
Cn1cc(C2=C(c3ccc4ccccc4c3)C(=O)NC2=O)c2ccccc21 | 0.885 µM | > 13.6 µM | > 25 µM | > 25 µM | 
CNCCNc1c2c(c(NCCNC)c3c(CN(C)C)c[nH]c13)C(=O)c1ccccc1C2=O | 2.5 µM | 10.7 µM | 32 µM | > 57.1 µM | 
CC1=CC(/C=C(\C)CCCc2ccoc2)C2(OC(=O)C(C)=C2O)[C@H]2C1CC[C@@H]2C (some centres undefined) |  |  |  |  | TGI (HOP-18 NSCLC): 82.6 µM; TGI (M19-MEL melanoma): 90.6 µM; TGI (DLD-1 colon): > 100 µM; TGI (SNB-78 CNS): 85.2 µM
O=Cc1cc2c(cc1-c1c(C=O)ccc3c1OCO3)OCO2 |  | > 10 µM |  | > 10 µM | TGI (MDA-N): > 10 µM
Cc1ccc(Cl)cc1Nc1nc(C(F)(F)F)ccc1C(=O)N1CCN(c2ccc(F)cc2)CC1 | 14.2 µM | 29.6 µM | 6.25 µM | 42.6 µM | 
C=CC1CC12C(=O)C1OC2(C)C2C(=O)c3cc4ccccc4cc3C(=O)C12 (centres undefined) | 26.3 µM | 77.8 µM | 23.1 µM | > 100 µM | 

SMILES | GI50 (MDA-MB-435) | TGI (MDA-MB-435) | GI50 (T-47D breast) | TGI (T-47D breast) | also measured
CCN1CCN(c2ccc(Nc3cc(N(C)C(=O)Nc4c(Cl)c(OC)cc(OC)c4Cl)ncn3)cc2)CC1 | 1.86 µM | 3.71 µM | 2.51 µM | 6.49 µM | 
C[C@H]1c2cccc(O)c2C(O)=C2C(=O)[C@]3(O)C(O)=C(C(N)=O)C(=O)[C@@H](N(C)C)[C@@H]3[C@@H](O)[C@@H]21 | 3.01 µM | 12.6 µM | 3.28 µM | 34.8 µM | 
CCC[CH2][Sn]([CH2]CCC)([CH2]CCC)[O]C(=O)CC | 0.178 µM | 0.458 µM | 0.166 µM | 0.385 µM | 
CC[C@]12C=CCN3CC[C@@]4(c5ccc(OC)cc5N(C)[C@H]4[C@@](O)(C(=O)OC)[C@@H]1OC(=O)CCC[P+](c1ccccc1)(c1ccccc1)c1ccccc1)[C@@H]32 | 0.239 µM and 0.348 µM | 0.879 µM and 1.23 µM | 0.29 µM and 0.224 µM | 6.56 µM and 0.977 µM | 
Cc1c2cccnc2c(C)c2c1c1cc(CO)ccc1n2C | 3.06 µM | 13.7 µM | 0.989 µM | 4.97 µM | 
COc1cc(Nc2cn[nH]c2-c2ccc(Cl)cc2)cc(OC)c1OC | 1.26 µM | 4.24 µM | 4.56 µM | 56 µM | 
COCCOc1cc(F)c2c(Nc3ccc(NC(=O)Cn4cc(C(C)C)nn4)cc3)ncnc2c1 | > 100 µM | > 100 µM | 8.11 µM | > 100 µM | 
Cn1c(=O)c2c(nc(Nc3cc(=O)[nH]c(=O)[nH]3)n2Cc2ccccc2)n(C)c1=O | > 100 µM | > 100 µM | > 100 µM | > 100 µM | 
COc1ccc(NC(=O)CCc2cc(-c3ccc(O)c(OC)c3)nc(NC#N)n2)cc1 |  |  |  |  | TGI (HOP-18 NSCLC): > 100 µM; TGI (M19-MEL melanoma): > 100 µM; TGI (DLD-1 colon): > 100 µM; TGI (SNB-78 CNS): > 100 µM
Oc1[nH]c2ccccc2c1N=Nc1ccccc1Cl |  | > 100 µM |  | > 100 µM | TGI (MDA-N): > 100 µM
CNCCCn1cc(C2=C(c3cn(C)c4ccccc34)C(=O)NC2=O)c2ccccc21 | 3.31 µM | 6.9 µM | 5.66 µM | 15.1 µM | 
NC(=NCCCOc1ccc(Cl)cc1)Nc1ccc(C(F)(F)F)cc1 | 1.73 µM | 3.45 µM |  |  | 
Clc1coc2nc3ccccc3c(Nc3ccc4c(c3)OCO4)c12 | 0.62 µM | 1.46 µM | 13.4 µM | > 100 µM | 
COc1ccc2c(c1)C(C)Cc1c(Cl)ncnc1N2C (centres undefined) | 0.355 µM | 1.81 µM | 2.02 µM | 20.5 µM | 
CCCCCCCCCC/C=C/CC(=O)SCCNC(=O)CCNC(=O)[C@@H](O)C(C)(C)COP(=O)(O)OP(=O)(O)OCC1OC(n2cnc3c(N)ncnc32)C(O)C1OP(=O)(O)O (some centres undefined) |  | > 10 µM |  | > 10 µM | TGI (MDA-N): > 10 µM
O=C1NC(=Nc2ccccc2)S/C1=C\c1ccc2ncccc2c1 | 0.62 µM | 1.88 µM | 12.3 µM | > 25 µM | 
COC(=O)/C=C/c1cc(O)c2oc(-c3ccc(O)c(O)c3)c(C(=O)OC)c2c1 | 0.0295 µM | 0.108 µM | 0.577 µM | 9.48 µM | 
O=C(CCCn1ccnc1[N+](=O)[O-])NCCn1cncc1[N+](=O)[O-] |  | > 100 µM |  | > 100 µM | TGI (MDA-N): > 100 µM
Cc1nnc(S(=O)(=O)c2ccc(N=Nc3c(N)nc(N)nc3N)cc2)s1 |  | > 100 µM |  | > 100 µM | TGI (MDA-N): > 100 µM
COc1cc(C(=O)c2cc(C)c3[nH]c4ccc(Cl)cc4c3c2C)cc(OC)c1OC | 0.0249 µM | 0.0733 µM | 1.84 µM | 39.3 µM | 
C/C1=C\CC[C@@]2(C)O[C@@H]2[C@H]2OC(=O)[C@@H](CN(C)C)[C@@H]2CC1 | 7.68 µM | 25.3 µM | 39.4 µM | > 100 µM | 
COc1ccc(N2C(=O)C(c3ccccc3)(c3ccccc3)C23C(=O)N(C)c2ccccc23)cc1 (centres undefined) | > 100 µM | > 100 µM | > 100 µM | > 100 µM | 
Cc1ccc(C(SCC(N)C(=O)O)(c2ccccc2)c2ccc(C)cc2)cc1 (centres undefined) | 0.0323 µM | 0.14 µM | 0.333 µM | 16.9 µM | 
COc1ncnc(C2CC2)c1-c1ncc2cnn(Cc3ccc(-c4nc(C(F)(F)F)cn4C(C)C)cc3)c2n1 | 19.8 µM | 51.6 µM | 10.6 µM | 85.2 µM | 
OCCN1CN(CCO)CN(c2nc(N3CN(CCO)CN(CCO)C3)nc(N3CN(CCO)CN(CCO)C3)n2)C1 |  |  | 1.06 ng/mL | 4.92 ng/mL | 
